In ChEMBL document CHEMBL1122204 (J Med Chem, 1982):

Test: Approximate pKa value of compound was determined
Assay type: physicochemical
Conditions: not given

Row | SMILES | Approx. pKa
1 | CC/C(=C(\c1ccccc1)c1ccc(OCCn2cccc2)cc1)c1ccccc1 | -3.8

Same assay, conditions: read-out: Approx. pKa

Row | SMILES | pKa
2 | CC/C(=C(\c1ccccc1)c1ccc(OCCN=C(N)N)cc1)c1ccccc1 | 13.7
3 | CC/C(=C(\c1ccccc1)c1ccc(OCCCN2CCCC2)cc1)c1ccccc1 | 11.3
4 | CC/C(=C(\c1ccccc1)c1ccc(OCCN(CC)CC)cc1)c1ccccc1 | 10.9
5 | CC/C(=C(\c1ccccc1)c1ccc(OCCN(C)C)cc1)c1ccccc1 [TAMOXIFEN] | 10.8

Results, then the molecule that gave them:

Row | pKa | SMILES
6 | 9.8 | CC/C(=C(\c1ccccc1)c1ccc(OCCN2CCN(C)CC2)cc1)c1ccccc1
7 | 11.3 | CC/C(=C(\c1ccccc1)c1ccc(OCCN2CCCC2)cc1)c1ccccc1
8 | 8.7 | CC/C(=C(\c1ccccc1)c1ccc(OCCN2CCOCC2)cc1)c1ccccc1
9 | 11.2 | CC/C(=C(\c1ccccc1)c1ccc(OCCN2CCCCC2)cc1)c1ccccc1
